Literature values in patent US20100297147A1, “COMPOSITIONS AND METHODS FOR MODULATING TLR14 ACTIVITY” (WYETH, priority 2006, published 2010).

Test system: postnatal day 4 rat cerebellar granule neurons
Details: positive control, used at 10 uM

## C[C@@H](N)[C@H]1CC[C@H](C(=O)Nc2ccncc2)CC1 [Y-27632]
  neurite outgrowth in the presence of myelin (known activity of control compound): known to induce neurite outgrowth in the presence of myelin
